Experimental data published in article PMC9127232, “Wound Healing Properties of Jasione montana Extracts and Their Main Secondary Metabolites” (Frontiers in Pharmacology, 2022).
Values joined by “and” are separate entries in the source; they are usually repeats but may differ in a detail not shown here. Equal values may be shown once. “Also recorded” adds a separate entry of the source.

Key:
[1] = target: porcine pancreatic elastase (Sus scrofa, UniProt P00772); assay: Elastase inhibitory activity; type: biochemical; conditions: for anti-elastase activity (in words): extracts 100–600 μg/mL, compounds 10–200 μg/mL
porcine pancreatic elastase, sequence (P00772 27-266): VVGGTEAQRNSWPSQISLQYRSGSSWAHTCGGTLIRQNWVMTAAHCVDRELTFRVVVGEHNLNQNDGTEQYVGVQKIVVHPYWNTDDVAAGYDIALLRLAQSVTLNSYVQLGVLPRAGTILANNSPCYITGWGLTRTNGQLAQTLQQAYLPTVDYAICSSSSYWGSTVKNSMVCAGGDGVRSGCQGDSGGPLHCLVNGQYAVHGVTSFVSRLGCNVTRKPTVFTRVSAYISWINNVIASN
Protocol: The measurement of elastase inhibition was modified slightly according to a previous method ([Wittenauer et al., 2015]). The procedure was performed in 100 mM Tris buffer (pH = 8.0). Briefly, 100 µL of extracts (JM1–JM6) (100–600 μg/mL) or compounds (9, 12, and 22) (10–200 μg/mL) and 100 µL of Tris buffer were mixed with 25 µL of porcine pancreatic elastase solution (0.05 mg/mL). Then, the mixtures were preincubated at 25°C for 5 min, and 70 µL of AAAPVN (0.4 mg/mL) was added. After another 15 min of incubation, the release of p-nitroaniline was monitored at 410 nm using a microplate reader. A blank solution was prepared by using buffer instead of sample solution. […] The calculations were performed as follows: ElInh(% )=(C-S)/C×100% where C is the negative control and S is the sample.

[2] = test system: dermal fibroblast cells; set-up: method as in Juszczak et al., 2021; conditions: ref Juszczak et al., 2021; cited from earlier work
[3] = test system: IL-6 in fibroblast cells (PCS-201-012); assay: Cytometric Bead Array, IL-6 secretion; type: cell-based, human; conditions: 24 h
Protocol: (§1) The normal human dermal fibroblast cell line (PCS-201-012) was cultured in DMEM blended with 10% fetal bovine serum (FBS), 10 μg/mL streptomycin, and 10 units/mol penicillin. The cells were cultured in 5% CO2 and fully humidified at 37°C. All tested compounds were dissolved at a final vehicle (DMSO) concentration of not more than 0.5% (v/v). Cells cultured in drug-free DMEM were used as controls, and cells treated with DMSO alone were used as solvent controls. All extracts (JM1–JM6) and the main components of the tested extracts (9, 12, and 22) were analyzed at the following concentrations: 10, 25, 50, 100, 200, and 300 μg/mL. The effect of the tested extracts and fractions (JM1–JM6) as well as 9, 12, and 22 on cytokine (IL-1β, IL-6 IL-8, IL-10, IL-12p70 and TNF) secretion was determined using the Cytometric Bead Array (CBA) Human Inflammatory Cytokine Kit according to the manufacturer’s protocols. After 24 h of incubation with the test samples at concentrations of 10, 25, 50, 100, 200, and 300 μg/mL, fibroblast cells were washed with PBS, trypsinized, resuspended in DMEM and centrifuged (1,200 rpm, 10 min, 4°C). The supernatant was then replaced with 50 μL of assay diluent with the addition of 50 μL of assay beads and 50 μL of PE-labeled antibodies (detection reagent) from the human inflammatory cytokine kit. Incubation was performed for 3 h at room temperature without daylight, after which the fibroblast cells were washed and centrifuged (1,200 rpm, 5 min, 4°C). The cell pellet was resuspended in 300 μL of wash buffer and then immediately subjected to analysis by FCAP Array v3 software on a BD FACSCanto II flow cytometer (both from BD Biosciences Systems, San Jose, CA, United States) calibrated with BD Cytometer Setup and Tracking beads (BD Biosciences, San Diego, CA, United States).

[4] = test system: IL-8 in fibroblast cells (PCS-201-012); assay: Cytometric Bead Array, IL-8 secretion; type: cell-based, human; conditions: 24 h
Protocol: as §1

[5] = Ferric reducing antioxidant potential (FRAP); conditions: for FRAP: 1 h at 37°C, 594 nm
Protocol: Determination of the ferric reducing antioxidant potential (FRAP) was performed using a ferric reducing antioxidant power assay kit. Ten microliters of each sample (JM1–JM6, 9, 12, 22) was mixed with 190 µL of supplied reaction mix (FRAP assay buffer, FeCl3 solution, FRAP probe). The absorbance was measured after 1 h of incubation at 37°C at 594 nm using a microplate reader. A blank solution contained 10 µL of MeOH instead of extract/compound solution. For further calculations, the ferrous standard curve was evaluated. The values are given as mM ferrous equivalents. All tests were executed in triplicate.

[6] = test system: normal human dermal fibroblast cell line (PCS-201-012); assay: Scratch proliferation and migration assay; type: cell-based; conditions: 24 h; for cell migration into the injured area: up to 100 μg/mL
Protocol: The normal human dermal fibroblast cell line (PCS-201-012) was cultured in DMEM blended with 10% fetal bovine serum (FBS), 10 μg/mL streptomycin, and 10 units/mol penicillin. The cells were cultured in 5% CO2 and fully humidified at 37°C. All tested compounds were dissolved at a final vehicle (DMSO) concentration of not more than 0.5% (v/v). Cells cultured in drug-free DMEM were used as controls, and cells treated with DMSO alone were used as solvent controls. All extracts (JM1-JM6) and the main components of the tested extracts (9, 12, and 22) were analyzed at the following concentrations: 10, 25, 50, 100, 200, and 300 μg/mL. The in vitro wound healing activity of J. montana extracts and isolated compounds was determined by a scratch assay, which is a model of a wound in which monolayer skin cells, including fibroblasts, react to the disruption of contact between cells and stimulate proliferation and migration by modulating the concentration of growth factors and cytokines at the edge wounds ([Liang et al., 2007]). For this purpose, fibroblast cells were seeded at a density of 2.5 × 10^5 in 6-well cell culture dishes and incubated for 24 h at 37°C. After incubation, a linear scratch was made with a universal sterile 200 μL pipette tip. Cells were incubated with the tested extracts (JM1-JM6) and compounds (9, 12, and 22) at concentrations of 10, 25, 50, 100, 200 and 300 μg/mL for 24 h at 37°C. Allantoin, a plant-derived commercialized drug, was used as the positive control at a concentration of 50 μg/mL to judge the rate of cell migration ([[…] et al., 2020]). After incubation, the migrated cells were washed twice with PBS and observed under a phase contrast microscope. The progress of migration, proliferation and closing of the wound before and after treatment with the tested samples was monitored by imaging with a phase contrast microscope (Nikon Eclipse Ti, Tokyo, Japan) at × 100 magnification and NIS-Elements 3.0 imaging software (Nikon Instruments Inc., Melville, NY, United States).

[7] = DPPH radical-scavenging assay; conditions: for DPPH, IC50: 30 min, absorbance 517 nm, mean ± SD; for antiradical potential in the DPPH method compared with Trolox: vs positive control Trolox IC50 58.6 ± 0.1 μg/mL
Protocol: All extracts (JM1–JM6) and main components of the tested extracts (9, 12, and 22) were isolated and identified as previously described ([Juszczak et al., 2021]). A total of 130 μL of sample solution at various concentrations was mixed with 70 μL of DPPH (0.2 mg/mL) in a 96-well plate. Then, the reaction mixture was incubated in the dark at room temperature. After 30 min, the absorbance was recorded at 517 nm using a microplate reader (BioTek Instruments microplate spectrophotometer EPOCH 2, Oxfordshire, United Kingdom). A blank solution was prepared by mixing methanol and DPPH solution. Trolox was used as a positive control. The experiment was performed in triplicate. RSA(%)=(C-S)/C×100% where C is the negative control and S is the sample. Concentration of the tested samples, which scavenges 50% of free radicals present in the solution (IC50), was calculated.

[8] = test system: IL-1β in fibroblast cells (PCS-201-012); assay: Cytometric Bead Array, IL-1β secretion; type: cell-based, human; conditions: for IL-1β: BSR = below the standard range (lower than detection limit)
Protocol: as §1

[9] = test system: collagen type I in fibroblast cells (PCS-201-012); assay: Collagen type I biosynthesis by flow cytometry; type: cell-based, human; conditions: for collagen type I content, median fluorescence intensity (MFI): 24 h
Protocol: The normal human dermal fibroblast cell line (PCS-201-012) was cultured in DMEM blended with 10% fetal bovine serum (FBS), 10 μg/mL streptomycin, and 10 units/mol penicillin. The cells were cultured in 5% CO2 and fully humidified at 37°C. All tested compounds were dissolved at a final vehicle (DMSO) concentration of not more than 0.5% (v/v). Cells cultured in drug-free DMEM were used as controls, and cells treated with DMSO alone were used as solvent controls. All extracts (JM1–JM6) and the main components of the tested extracts (9, 12, and 22) were analyzed at the following concentrations: 10, 25, 50, 100, 200, and 300 μg/mL. The effect of the tested extracts and fractions (JM1–JM6), as well as their main compounds (9, 12, and 22) on collagen type I biosynthesis was determined using a method of cytometric staining of the surface anti-collagen type I according to the manufacturer’s protocols. Fibroblasts were incubated for 24 h at 37°C with the test samples at concentrations of 10, 25, 50, 100, 200, and 300 μg/mL. Allantoin (50 μg/mL) was used as a positive control. After incubation, fibroblasts were washed with PBS, trypsinized, resuspended in DMEM and centrifuged (1,200 rpm, 10 min, 4°C). The supernatant was removed, and the cells were washed with 2 mL of stain buffer. Then, the cells were incubated for 30 min on ice with 100 µL of stain buffer and 1 µL of antibody. After complete incubation, 2 mL of stain buffer was added. After consecutive centrifugation (1,200 rpm, 10 min, 4°C), the supernatant was removed, the cells were resuspended in 300 µL of buffer and then immediately subjected to analysis on a flow cytometer (BD FACSCanto II flow cytometer, San Jose, CA, United States) calibrated with BD Cytometer Setup and Tracking beads (BD Biosciences, San Diego, CA, United States). The median fluorescence intensity was calculated using FACSDiva software (BD Biosciences Systems, San Jose, CA, United States) and analyzed by FCS Express 7 software (DeNovo Software, Pasadena, CA, United States).

DPPH, IC50 [7] | SMILES | cytotoxicity on dermal fibroblast cells (in words) [2] | FRAP / reducing power [5] [mM Fe^2+/mL] | FRAP [5] [mM Fe^2+eq/mL] | antiradical potential in the DPPH method compared with Trolox [7] | anti-elastase activity (in words) [1] | concentration at which the highest increase in IL-6 secretion occurred [3] [µg/mL] | IL-8 levels (in words) ([4]; 100–300 μg/mL) | cell migration into the injured area [6] | collagen type I content, median fluorescence intensity (MFI) ([9]; 300 μg/mL, control 1,507 ± 9.2) | also measured
10.6 ± 0.7 µg/mL and 10.65 ± 0.7 µg/mL | O=c1cc(-c2ccc(O)c(O)c2)oc2cc(O)cc(O)c12 [Compound 22, 5,7,3',4'-tetrahydroxyflavone] | toxicity at the higher concentrations tested | 60.59 ± 0.5 | 51.81 ± 0.78 | stronger antiradical potential |  |  |  |  |  | IC50 ([1]; Tris buffer pH 8.0, substrate AAAPVN, 410 nm): 139 µM; IL-6 expression levels (in words) ([3]; 10–300 μg/mL, vs untreated control): dose-dependent decrease; IL-8 level ([4]; 300 μg/mL, control 8,396.8 ± 2,771.1 pg/mL): 60.8 ± 8 pg/mL; IL-8 expression (in words) ([4]; 10–300 μg/mL): decrease in its expression was most pronounced; stimulation of fibroblast migration ([6]; only at 10 μg/mL): capable of stimulating cells only at a low concentration; IL-1β level ([8]; 100 μg/mL, 24 h, control 13.4 ± 5.6 pg/mL): 1.7 ± 1.1 pg/mL; IL-1β ([8]; 200 μg/mL): BSR; IL-1β ([8]; 300 μg/mL): BSR; IL-1β expression (in words) ([8]; 200–300 μg/mL, 24 h): below the sensitivity of the method; secretion of IL-1β (in words) ([8]; all tested concentrations 10–300 μg/mL, 24 h): highest decrease; collagen content in fibroblast cells (in words) ([9]; 10 μg/mL): decrease in collagen content
16.6 ± 0.7 µg/mL and 16.59 ± 0.7 µg/mL | O=c1cc(-c2ccc(O)c(O)c2)oc2cc(O[C@@H]3O[C@H](CO)[C@@H](O)[C@H](O)[C@H]3O)cc(O)c12 [Compound 12, luteolin 7-O-β-D-glucoside] | did not show strong cytotoxicity | 51.9 ± 0.5 | 51.88 ± 0.53 | stronger antiradical potential | no significant inhibitory activity; also recorded: not active | 100 | reduced IL-8 levels | significantly increased | 1717 ± 10.6 | 
58.6 ± 0.1 µg/mL | Cc1c(C)c2c(c(C)c1O)CCC(C)(C(=O)O)O2 (centres unmarked) [Trolox, reference compound] |  |  |  |  |  |  |  |  |  | 

More lines, now with the values behind:

SMILES | DPPH, IC50 [7] | cytotoxicity on dermal fibroblast cells (in words) [2] | FRAP / reducing power [5] [mM Fe^2+/mL] | FRAP [5] [mM Fe^2+eq/mL] | antiradical potential in the DPPH method compared with Trolox [7] | anti-elastase activity (in words) [1] | concentration at which the highest increase in IL-6 secretion occurred [3] [µg/mL] | IL-8 levels (in words) ([4]; 100–300 μg/mL) | cell migration into the injured area [6] | collagen type I content, median fluorescence intensity (MFI) ([9]; 300 μg/mL, control 1,507 ± 9.2) | also measured
O=c1cc(-c2ccc(O)c(O)c2)oc2cc(O[C@@H]3O[C@H](CO)[C@@H](O)[C@H](O)[C@H]3O[C@@H]3OC[C@@H](O)[C@H](O)[C@H]3O)cc(O)c12 [Compound 9, luteolin 7-O-β-D-xylosyl-(1-2)-β-D-glucoside] | 20.34 ± 0.8 µg/mL |  |  | 60.59 ± 0.46 | stronger antiradical potential | no significant inhibitory activity; also recorded: not active | 100 | reduced IL-8 levels | significantly increased | 1763 ± 58 | IL-8 levels (in words) ([4]; 10–100 μg/mL): significant increase; effectiveness in the scratch test ([6]; 50 μg/mL, comparable with allantoin 50 μg/mL): most effective
NC(=O)NC1NC(=O)NC1=O (centres unmarked) [allantoin, reference compound] |  |  |  |  |  |  |  |  |  |  | IL-6 (in words) ([3]; 50 μg/mL, positive control): upregulation of IL-6; IL-8 expression (in words) ([4]; 50 μg/mL, positive control): decrease in IL-8 expression; IL-1β levels (in words) ([8]; 50 μg/mL, 24 h, positive control): stimulation of proinflammatory IL-1β levels; collagen type I content, median fluorescence intensity (MFI) ([9]; 50 μg/mL, control 1822 ± 62.2): 1,494 ± 2.8
